The values that follow come from patent publication US8697691B2, “Alkyl 3-((2-amidoethyl)amino)-8-azabicyclo[3.2.1]octane-8-carboxylate analogs as selective M1 agonists and methods of making and using same” (Vanderbilt University, priority 2009, dated 2014).

Where two headings read alike, the source gives them in different places.

This test addresses T1, rat M1 receptor (Rattus norvegicus, UniProt P08482).
T1 construct: host or cells: CHO-K1
T1 sequence (P08482 1-460): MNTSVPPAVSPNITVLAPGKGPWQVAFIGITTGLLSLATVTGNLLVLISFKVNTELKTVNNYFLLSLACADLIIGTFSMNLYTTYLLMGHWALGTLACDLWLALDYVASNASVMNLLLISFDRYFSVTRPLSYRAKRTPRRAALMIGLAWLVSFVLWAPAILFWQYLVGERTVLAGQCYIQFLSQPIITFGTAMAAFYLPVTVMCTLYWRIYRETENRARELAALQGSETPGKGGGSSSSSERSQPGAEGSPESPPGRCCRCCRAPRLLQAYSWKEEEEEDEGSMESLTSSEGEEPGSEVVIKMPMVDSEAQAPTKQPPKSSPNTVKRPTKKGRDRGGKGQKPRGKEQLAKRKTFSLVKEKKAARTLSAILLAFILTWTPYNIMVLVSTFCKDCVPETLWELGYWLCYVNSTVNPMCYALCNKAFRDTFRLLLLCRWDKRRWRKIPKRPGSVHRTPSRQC
In words: Calcium mobilization assay, CHO-K1 cells stably expressing rat M1 (low throughput, Flexstation II). The conditions noted are these: for Emax: CHO-K1, read-out: Efficacy (% Max ACh). The test is classed as cell-based. An excerpt: Chinese hamster ovary (CHO-K1) cells stably expressing rat (r)M1 were purchased from the American Type Culture Collection and cultured according to their indicated protocol. CHO cells stably expressing human (h)M2, hM3, and hM5 were described previously (Levey et al., 1991); hM1 and hM4 cDNAs were purchased from Missouri S&T cDNA Resource; rM4 cDNA was provided by T. I. Bonner (National Institutes of Health, Bethesda, Md.). hM1, hM4, and rM4 cDNAs were used to stably transfect CHO-K1 cells purchased from the American Type Culture Collection using Lipofectamine2000. To make stable hM2, hM4 and rM4 cell lines for use in calcium mobilization assays, these cells also were stably transfected with a chimeric G-protein (Gqi5) (provided by B. R. Conklin, University of California, San Francisco) using Lipofectamine 2000. rM1, hM3, and hM5 cells were grown in Ham's F-12 medium containing 10% heat-inactivated fetal bovine serum (FBS), 20 mM HEPES, and 50 μg/mL G418 sulfate. hM2-Gqi5 and hM4-Gqi5 cells were grown in the same medium also containing 500 μg/mL Hygromycin B. Stable rM4-Gqi5 cells were grown in DMEM containing 10% heat-inactivated FBS, 20 mM HEPES, 400 μg/mL G418 sulfate, and 500 μg/mL Hygromycin B. The rat M1 Y381A orthosteric mutant receptor cDNA was generated using the Quik-Change site-directed mutagenesis kit (Stratagene) and verified by sequencing. CHO-K1 cells were stably transfected with this cDNA using Lipofectamine2000 and screened for expression based on calcium mobilization in response to the allosteric M1 agonist N-desmethylclozapine.
For low throughput measurement of agonist-evoked increases in intracellular calcium, CHO-K1 cells stably expressing muscarinic receptors were plated in 100 μL of growth medium at 5×10^4 (rM1, hM3, and hM5) or 6×10^4 cells per well (rM1 Y381A, hM2, and rM4) in Costar 96-well black-walled, tissue culture (TC)-treated, clear-bottom plates (Fisher). Cells were incubated overnight at 37° C. and 5% CO2. The next day, medium was removed from the cells, and they were incubated with 50 μL of 2 μM Fluo-4/acetoxymethyl ester (Invitrogen, Carlsbad, Calif.) prepared as a 2.3 mM stock in DMSO and mixed in a 1:1 ratio with 10% (w/v) Pluronic F-127 and diluted in assay buffer [HBSS (Invitrogen) supplemented with 20 mM HEPES and 2.5 mM probenecid, pH 7.4] for 1 h at 37° C. and 5% CO2. Dye was removed and replaced with 50 μL of assay buffer. For calcium fluorescence measurements, CRCs of compounds (50 μl, 2×) were added 19 s after the beginning of data collection via a Flexstation II (Molecular Devices, Sunnyvale, Calif.). Fluorescence imaging continued for a total of 130 s acquisition time using an excitation wavelength of 488 nm, an emission wavelength of 525 nm, and a cutoff wavelength of 515 nm. All of the peaks of the calcium response were normalized to the response to a maximally effective concentration of ACh (ECmax). These normalized peak calcium response values were fit using GraphPad Prism version 4.0 to a four-parameter logistic equation to determine EC50 values.

[1] abbreviates: rat M1, agonist-evoked calcium mobilization in CHO-K1 cells, read-out: Potency (EC50).

Consider `CCOC(=O)N1C2CCC1CC(NCCNC(=O)c1ccc3c(c1)CCO3)C2` (centres unmarked) [Example 12, ethyl 3-{[2-(2,3-dihydro-1-benzofuran-5-ylformamido)ethyl]-amino}-8-azabicyclo[3.2.1]octane-8-carboxylate], for which the Emax came to 31%.
Turning to `CCOC(=O)N1C2CCC1CC(NCCNC(=O)c1cccs1)C2` (centres unmarked) [Example 1, Ethyl 3-(2-(thiophene-2-carboxamido)ethylamino)-8-azabicyclo[3.2.1]octane-8-carboxylate], the EC50 is 74 nM and the Emax is 88%.
`CCOC(=O)N1C2CCC1CC(NCCNC(=O)c1ccco1)C2` (centres unmarked) [Example 14, ethyl 3-{[2-(furan-2-ylformamido)ethyl]-amino}-8-azabicyclo[3.2.1]octane-8-carboxylate]: the Emax stood at 24%.
With `CCOC(=O)N1C2CCC1CC(NCCNC(=O)c1ccc(C)cc1)C2` (centres unmarked) [Example 8, ethyl 3-({2-[(4-methylphenyl)formamido]-ethyl}amino)-8-azabicyclo[3.2.1]octane-8-carboxylate], the Emax was found to be 47%.
Turning to `CCOC(=O)N1C2CCC1CC(NCCNC(=O)c1ccc(Cl)cc1F)C2` (centres unmarked) [Example 17, ethyl 3-({2-[(4-chloro-2-fluorophenyl)formamido]-ethyl}amino)-8-azabicyclo[3.2.1]octane-8-carboxylate], the Emax amounted to 20%.
Regarding `CCOC(=O)N1C2CCC1CC(NCCNC(=O)c1ccccc1)C2` (centres unmarked) [Example 18, ethyl 3-{[2-(phenylformamido)ethyl]-amino}-8-azabicyclo[3.2.1]octane-8-carboxylate], the EC50 was found to be 67 nM and the Emax worked out at 103%.
`CCOC(=O)N1C2CCC1CC(NCCNC(=O)c1c(F)cccc1F)C2` (centres unmarked) [Example 21, ethyl 3-({2-[(2,6-difluorophenyl)formamido]-ethyl}amino)-8-azabicyclo[3.2.1]octane-8-carboxylate]: the Emax was 18%. In addition, under setting [1], the EC50 was found to be 880 nM.
Take `CCOC(=O)N1C2CCC1CC(NCCNC(=O)c1ccccn1)C2` (centres unmarked) [Example 16, ethyl 3-{[2-(pyridin-2-ylformamido)ethyl]-amino}-8-azabicyclo[3.2.1]octane-8-carboxylate]: the Emax stood at 22%.
Turning to `CCOC(=O)N1C2CCC1CC(NCCNC(=O)c1ccc(F)c(F)c1)C2` (centres unmarked) [Example 15, ethyl 3-({2-[(3,4-difluorophenyl)formamido]-ethyl}amino)-8-azabicyclo[3.2.1]octane-8-carboxylate], the Emax turned out to be 104%. Besides, the EC50 under setting [1] came out at 122 nM.
As to `CCOC(=O)N1C2CCC1CC(NCCNC(=O)c1ccc(C)c(F)c1)C2` (centres unmarked) [Example 13, ethyl 3-({2-[(3-fluoro-4-methylphenyl)formamido]-ethyl}amino)-8-azabicyclo[3.2.1]octane-8-carboxylate], the Emax was 50%. Further, the EC50 under setting [1] amounted to 631 nM.
On to `CCOC(=O)N1C2CCC1CC(NCCNC(=O)c1ccc(F)cc1C(F)(F)F)C2` (centres unmarked) [Example 5, ethyl 3-[(2-{[4-fluoro-2-(trifluoromethyl)phenyl]-formamido}ethyl)-amino]-8-azabicyclo[3.2.1]octane-8-carboxylate], for which the Emax is 39%.
As for `CCOC(=O)N1C2CCC1CC(NCCNC(=O)c1ccc(C)c(C)c1)C2` (centres unmarked) [Example 11, ethyl 3-({2-[(3,4-dimethylphenyl)formamido]-ethyl}amino)-8-azabicyclo[3.2.1]octane-8-carboxylate], the Emax stood at 48%.
As to `CCOC(=O)N1C2CCC1CC(NCCNC(=O)c1ccc(F)c(OC)c1)C2` (centres unmarked) [Example 22, ethyl 3-({2-[(4-fluoro-3-methoxyphenyl)formamido]-ethyl}amino)-8-azabicyclo[3.2.1]octane-8-carboxylate], the Emax worked out at 12%. The EC50 under setting [1] was 1460 nM.
For `CCOC(=O)N1C2CCC1CC(NCCNC(=O)c1ccc(F)c(C(F)(F)F)c1)C2` (centres unmarked) [Example 23, ethyl 3-[(2-{[4-fluoro-3-(trifluoromethyl)phenyl]-formamido}ethyl)amino]-8-azabicyclo[3.2.1]octane-8-carboxylate] the same measures were 47% and 2720 nM.
Consider `CCOC(=O)N1C2CCC1CC(NCCNC(=O)Cc1ccccc1)C2` (centres unmarked) [Example 19, ethyl 3-{[2-(2-phenylacetamido)ethyl]-amino}-8-azabicyclo[3.2.1]octane-8-carboxylate], for which the Emax came to 33%.
`CCOC(=O)N1C2CCC1CC(NCCNC(=O)c1ccccc1Cl)C2` (centres unmarked) [Example 25, ethyl 3-({2-[(2-chlorophenyl)formamido]-ethyl}amino)-8-azabicyclo[3.2.1]octane-8-carboxylate]: the Emax was 80%. Besides, the EC50 under setting [1] came to 112 nM.
For `CCOC(=O)N1C2CCC1CC(NCCNC(=O)c1cccc(C)c1)C2` (centres unmarked) [Example 9, ethyl 3-({2-[(3-methylphenyl)formamido]-ethyl}amino)-8-azabicyclo[3.2.1]octane-8-carboxylate] the same measures were 103% and 115 nM.
On to `CCOC(=O)N1C2CCC1CC(NCCNC(=O)c1ccc(Cl)c(Cl)c1)C2` (centres unmarked) [Example 10, ethyl 3-({2-[(3,4-dichlorophenyl)formamido]-ethyl}amino)-8-azabicyclo[3.2.1]octane-8-carboxylate], for which the Emax was 49%. Also, under setting [1], the EC50 was 1020 nM.
Regarding `CCOC(=O)N1C2CCC1CC(NCCNC(=O)c1ccccc1C)C2` (centres unmarked) [Example 3, ethyl 3-({2-[(2-methylphenyl)formamido]-ethyl}amino)-8-azabicyclo[3.2.1]octane-8-carboxylate], the EC50 is 85 nM and the Emax is 81%.
Consider `CCOC(=O)N1C2CCC1CC(NCCNC(=O)c1cccc(OC)c1)C2` (centres unmarked) [Example 4, ethyl 3-({2-[(3-methoxy-phenyl)formamido]-ethyl}amino)-8-azabicyclo[3.2.1]octane-8-carboxylate], for which the Emax was 81%. Further, the EC50 under setting [1] amounted to 211 nM.
Take `CCOC(=O)N1C2CCC1CC(NCCNC(=O)Cc1cccs1)C2` (centres unmarked) [Example 20, ethyl 3-({2-[2-(thiophen-2-yl)acetamido]ethyl}-amino)-8-azabicyclo[3.2.1]octane-8-carboxylate]: the Emax came out at 51%.
For `CCOC(=O)N1C2CCC1CC(NCCNC(=O)c1ccccc1F)C2` (centres unmarked) [Example 2, Ethyl 3-(2-(2-fluorobenzamido)ethylamino)-8-azabicyclo[3.2.1]octane-8-carboxylate], the EC50 was 69 nM and the Emax was determined as 103%.
For the compound `CCOC(=O)N1C2CCC1CC(NCCNC(=O)c1ccc(F)cc1Cl)C2` (centres unmarked) [Example 7, ethyl 3({2-[(2-chloro-4-fluorophenyl)formamido]-ethyl}amino)-8-azabicyclo[3.2.1]octane-8-carboxylate], the EC50 worked out at 96 nM and the Emax stood at 95%.
`CCOC(=O)N1C2CCC1CC(NCCNC(=O)c1ccc(Cl)cc1)C2` (centres unmarked) [Example 24]: the Emax turned out to be 25%. For the same compound, the EC50 under setting [1] was 1070 nM.
Take `CCOC(=O)N1C2CCC1CC(NCCNC(=O)c1ccc(F)cc1F)C2` (centres unmarked) [Example 6, ethyl 3-({2-[(2,4-difluorophenyl)formamido]-ethyl}amino)-8-azabicyclo[3.2.1]octane-8-carboxylate]: the EC50 was 72 nM and the Emax is 82%.
